ChEMBL document CHEMBL5096222, “Discovery of a Trifluoromethoxy Cyclopentanone Benzothiazole Receptor-Interacting Protein Kinase 1 Inhibitor as the Treatment for Alzheimer's Disease” (J Med Chem, 2022)

Legend:
HT-29 = experiment: Anti-necroptotic activity in TSZ induced human HT-29 cells assessed as increase in cell viability pretreated with compound followed by TSZ stimulation and measured after 16 hrs by celltiter-glo luminescent cell viability assay; assay type: functional, cell-based
[1] = Cytotoxicity against human HT-29 cells assessed as reduction in cell viability by celltiter-glo luminescent cell viability assay; assay type: toxicity, cell-based
[2] = target: T1, Receptor-interacting serine/threonine-protein kinase 1 (Homo sapiens, UniProt Q13546); experiment: Binding affinity to recombinant human wild type partial length RIPK1 (M1 to K305 residues) expressed in bacterial expression system by KINOMEscan TM assay
T1 sequence (Q13546 whole entry): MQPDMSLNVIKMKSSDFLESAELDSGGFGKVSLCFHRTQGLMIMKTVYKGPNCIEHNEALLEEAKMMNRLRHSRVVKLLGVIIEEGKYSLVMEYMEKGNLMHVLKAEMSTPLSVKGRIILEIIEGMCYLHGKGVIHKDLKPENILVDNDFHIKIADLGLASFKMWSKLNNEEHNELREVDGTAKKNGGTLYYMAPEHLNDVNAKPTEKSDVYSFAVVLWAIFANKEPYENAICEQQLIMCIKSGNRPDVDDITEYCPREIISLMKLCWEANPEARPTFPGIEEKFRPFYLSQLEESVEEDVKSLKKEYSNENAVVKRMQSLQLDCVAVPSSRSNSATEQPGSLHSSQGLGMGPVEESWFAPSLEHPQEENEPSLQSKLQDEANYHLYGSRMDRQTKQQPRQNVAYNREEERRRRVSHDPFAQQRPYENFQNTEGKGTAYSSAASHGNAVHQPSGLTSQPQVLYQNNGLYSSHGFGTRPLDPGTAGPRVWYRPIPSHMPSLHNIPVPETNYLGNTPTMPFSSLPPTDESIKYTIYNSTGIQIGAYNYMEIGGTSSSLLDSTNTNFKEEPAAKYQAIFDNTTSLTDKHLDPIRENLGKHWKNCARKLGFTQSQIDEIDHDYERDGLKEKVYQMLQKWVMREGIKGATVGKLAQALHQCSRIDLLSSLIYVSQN

[3] = target: Receptor-interacting serine/threonine-protein kinase 3 (Homo sapiens, UniProt Q9Y572); experiment: Binding affinity to recombinant human wild type partial length RIPK3 (M1 to Q307 residues) expressed in bacterial expression system by KINOMEscan TM assay
Sequence of Receptor-interacting serine/threonine-protein kinase 3 (Q9Y572 whole entry, the tested form may be a part): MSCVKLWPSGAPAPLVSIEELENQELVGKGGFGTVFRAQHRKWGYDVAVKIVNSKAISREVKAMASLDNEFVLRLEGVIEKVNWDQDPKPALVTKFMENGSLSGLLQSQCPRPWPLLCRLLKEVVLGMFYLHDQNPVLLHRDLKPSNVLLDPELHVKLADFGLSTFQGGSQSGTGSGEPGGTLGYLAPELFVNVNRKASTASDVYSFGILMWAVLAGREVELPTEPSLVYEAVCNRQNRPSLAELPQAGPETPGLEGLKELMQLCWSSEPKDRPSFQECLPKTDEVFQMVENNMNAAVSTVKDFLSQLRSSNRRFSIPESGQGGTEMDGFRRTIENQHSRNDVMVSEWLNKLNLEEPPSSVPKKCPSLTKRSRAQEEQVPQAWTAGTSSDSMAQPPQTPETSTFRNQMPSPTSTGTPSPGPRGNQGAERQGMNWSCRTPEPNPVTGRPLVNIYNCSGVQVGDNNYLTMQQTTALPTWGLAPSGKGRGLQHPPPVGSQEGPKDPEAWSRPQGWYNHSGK

Kd [2]: 18 nM
Kd [3]: > 5000 nM
Compound: O=C(Cc1cccc(OC(F)(F)F)c1)Nc1cc(Oc2cc3nc(NC(=O)C4CC4F)sc3cc2F)ccc1F (centres undefined)
EC50 (HT-29): 10 nM
CC50 [1]: > 50000 nM
